Laboratory results published in US11297837B2, “Pesticidally activi mixtures comprising anthranilamide compounds” (priority 2016, dated 2022).

Experiments:
Format in all cases: in vivo
[1] = test system: boll weevil (Anthonomus grandis); test: Boll weevil (Anthonomus grandis) control, insect diet with eggs in 24-well microtiter plates; details: egg and larval mortality visually assessed after 5 days
Protocol: For evaluating control of boll weevil the test unit consisted of 24-well-microtiter plates containing an insect diet and 20-30 A. grandis eggs.
The compounds or mixtures were formulated using a solution containing 75% water and 25% DMSO. Different concentrations of formulated compounds or mixtures were sprayed onto the insect diet at 20 μl, using a custom built micro atomizer, at two replications.
(§1) For experimental mixtures in these tests identical volumes of both mixing partners at the desired concentrations respectively, were mixed together.
After application, microtiter plates were incubated at 23+1° C., 50+5% RH for 5 days. Egg and larval mortality was then visually assessed.

[2] = test system: yellow fever mosquito (Aedes aegypti); test: Yellow fever mosquito (Aedes aegypti) control, larvae in tap water in 96-well microtiter plates; details: larval mortality visually assessed after 2 days
Protocol: For evaluating control of yellow fever mosquito (Aedes aegypti) the test unit consisted of 96-well-microtiter plates containing 200 μl of tap water per well and 5-15 freshly hatched A. aegypti larvae.
The compounds or mixtures were formulated using a solution containing 75% water and 25% DMSO. Different concentrations of formulated compounds or mixtures were sprayed onto the insect diet at 2.5 μl, using a custom built micro atomizer, at two replications.
as §1
After application, microtiter plates were incubated at 28±1° C., 80±5% RH for 2 days. Larval mortality was then visually assessed.

[3] = test system: green peach aphid (Myzus persicae); test: Green peach aphid (Myzus persicae) control through systemic means, artificial diet in 96-well microtiter plates; details: 2 ppm; aphid mortality and fecundity visually assessed after 3 days
From the text: For evaluating control of green peach aphid (Myzus persicae) through systemic means the test unit consisted of 96-well-microtiter plates containing liquid artificial diet under an artificial membrane.
Different concentrations of formulated compounds or mixtures were pipetted into the aphid diet, using a custom built pipetter, at two replications.
as §1
After application, 5-8 adult aphids were placed on the artificial membrane inside the microtiter plate wells. […] Aphid mortality and fecundity was then visually assessed.

SMILES: CC(NC(=O)c1cc(Cl)cc(Br)c1NC(=O)c1cc(Br)nn1-c1ncccc1Cl)C1CC1 (centres unmarked) [I.2, cyclaniliprole, reference compound]
- Average Control % ([1]; 0.08 ppm): 0%
- Average Control % ([2]; 2 ppm): 0%

SMILES: Cn1nc(C(F)(F)C(F)(F)F)c(C(F)(F)F)c1C(=O)Nc1ccc(Cl)c(C(=O)NCc2ccccc2)c1 [II-1, N-[4-Chloro-3-[[(phenylmethyl)amino]carbonyl]phenyl]-1-methyl-3-(1,1,2,2,2-pentafluoroethyl)-4-(trifluoromethyl)-1H-pyrazole-5-carboxamide]
- Average Control % ([1]; 20 ppm): 0%
- Average Control % ([2]; 20 ppm): 50%

SMILES: CCN1OC[C@@H](NC(=O)c2ccc(C3=NOC(c4cc(Cl)cc(Cl)c4)(C(F)(F)F)C3)cc2C)C1=O (stereo partly drawn) [II-4.1, 4-[5-(3,5-dichlorophenyl)-5-(trifluoromethyl)-4H-isoxazol-3-yl]-N-[(4R)-2-ethyl-3-oxo-isoxazolidin-4-yl]-2-methyl-benzamide]
- Average Control % [3]: 0%
